Numbers after ± are expanded uncertainties.
What was measured:
[1] = Liquid; for mass density: 101.33 kPa
[2] = excess molar enthalpy (molar enthalpy of mixing); xn = mol fraction of the nth substance listed; settings: 413.15 K, 1620 kPa, Liquid, Flow calorimetry

CCC(N)=O [propanamide]
[1]
Settings | mass density [kg/m3] | vapor or sublimation pressure [kPa]
355.65 K | 963.2 ± 0.3 | –
358.15 K | 961.2 ± 0.3 | –
363.15 K | 957.2 ± 0.3 | –
375.45 K | – | 0.97 ± 0.08
384.15 K | – | 1.53 ± 0.08
394.15 K | – | 2.52 ± 0.08
403.65 K | – | 4.02 ± 0.08
414.05 K | – | 6.4 ± 0.09
427.65 K | – | 11.22 ± 0.09
443.85 K | – | 21.16 ± 0.11
455.55 K | – | 31.04 ± 0.12
462.95 K | – | 40.87 ± 0.14
469.05 K | – | 50.69 ± 0.15
475.85 K | – | 60.86 ± 0.16

CCC(N)=O [propanamide] + CCCCCCCCCCC
[2]
Settings | excess molar enthalpy [kcal/mol]
x2 = 0.0092 | 0.0332 ± 0.0012
x2 = 0.0284 | 0.0576 ± 0.0012
x2 = 0.049 | 0.0607 ± 0.0012
x2 = 0.1074 | 0.0669 ± 0.0012
x2 = 0.7646 | 0.133 ± 0.00143
x2 = 0.9337 | 0.15 ± 0.00167
x2 = 0.9661 | 0.154 ± 0.00167

Source: the NIST ThermoML archive (doi:10.1021/je034255e)
